{"source": "paper PMC10589713", "about": "(Proceedings of the National Academy of Sciences of the …, 2023)", "system": "SARS-CoV-2", "assay": "microbe, parasite or virus in culture", "format": "cell-based", "note": "“And” between values parts separate entries of the source, which are not always exact repeats. Equal values may be shown once."}
{"smiles": "O=c1ccn([C@@H]2O[C@H](CO)[C@@H](O)[C@H]2O)c(=S)[nH]1", "note": "[s2U, 2-thiouridine]", "values": [{"measurement": "EC50", "result": "2 µM and 2.2 µM and 1.8 µM and 2.9 µM and 1.9 µM and 2.5 µM"}]}
